Non-standard residues stand in square brackets, D forms with d. Residues, ends and D or L forms follow the SMILES beside them. dPhe(4-Cl) = N[C@H](Cc1ccc(Cl)cc1)C(=O)O; d2Nal = N[C@H](Cc1ccc2ccccc2c1)C(=O)O; dCit = NC(=O)NCCC[C@@H](N)C(=O)O; d3Pal = N[C@H](Cc1cccnc1)C(=O)O
Key:
hormone concentration = experiment: clinical trials, daily dose of 10 mg, suppression of hormone concentration; assay type: in vivo, human; conditions: daily dose of 10 mg
Description: This high daily dose cannot be applied in slow-release forms which are intended to act over a long period of time, for example several months. The depot injected under the skin would be too voluminous and would no longer be acceptable. Therefore there is the object of providing a product for reliable and acceptable application.

[1] = test system: DMBA-induced mammary cancers; experiment: DMBA-induced mammary cancers in rats; assay type: in vivo; conditions: initial high dose and a further dose which is not active when administered on its own
LH, FSH and testosterone = experiment: trial in humans over three weeks, initial dose plus maintenance doses, suppression of LH, FSH and testosterone; assay type: in vivo
Experimental: This surprising observation in animals was also confirmed in humans. […] The trial was performed over three weeks.

CC(=O)N[C@H](Cc1ccc2ccccc2c1)C(=O)N[C@H](Cc1ccc(Cl)cc1)C(=O)N[C@H](Cc1cccnc1)C(=O)N[C@@H](CO)C(=O)N[C@@H](Cc1ccc(O)cc1)C(=O)N[C@H](CCCNC(N)=O)C(=O)N[C@@H](CC(C)C)C(=O)N[C@@H](CCCNC(=N)N)C(=O)N1CCC[C@H]1C(=O)N[C@H](C)C(N)=O [Cetrorelix] (Ac-[d2Nal][dPhe(4-Cl)][d3Pal]SY[dCit]LRP[dA]-NH2)
suppression of the hormone concentration (hormone concentration): complete suppression of the hormone concentration to castration level | treatment of DMBA-induced mammary cancers [1]: successful treatment | suppression of LH, FSH and testosterone under maintenance doses after initial dose (LH, FSH and testosterone; after 10 mg initial dose, maintenance 1 mg every 12 hours, 2 mg every 24 hours or 1 mg every 24 hours, three weeks): suppression of LH, FSH and testosterone was maintained | suppression of LH, FSH and testosterone after initial dose (LH, FSH and testosterone; injection of an initial dose of 10 mg): led to suppression of LH, FSH and testosterone | suppression of LH, FSH and testosterone with maintenance doses on their own (LH, FSH and testosterone; maintenance doses (1 mg every 12 hours, 2 mg every 24 hours, 1 mg every 24 hours) applied on their own, no initial dose): suppression of LH, FSH and testosterone is not achieved

Reference: patent publication US5663145A, “Products for administering an initial high dose of Cetrorelix and producing a combination package for use when treating diseases” (ASTA Medica Aktiengesellschaft, priority 1993, dated 1997)
